From patent publication EP1996603B1, “LIPID A ANTAGONISTS WITH ANTI-SEPTIC SHOCK, ANTI-INFLAMMATORY, ANTI-ISCHEMIA AND ANALGESIC ACTIVITY” (Università Degli Studi Di Milano - Bicocca, priority 2006, dated 2007) come the findings set out here.

Entries after “also recorded” stand apart in the source; their conditions may differ.

Data set [1] relates to BMΦ and D1 cells. Description: Lipid A-induced IL-1β production (ELISA). The class given is cell-based, Mouse. The conditions noted are these: lipid A (0.5 µM) stimulation, effect proportional to concentration. The procedure: (§1) • Figure 1. Antagonistic activity of compounds Ia, Ic and Id on lipid A-stimulated cytokine production in BMDC, BMØ and D1 cells. TNFα production was measured in the supernatants 24 h later. From the right: lipid A (0.5µM), cells treated with lipid A alone; DMSO: cells incubated in the presence of complete medium plus DMSO; inhibitor 50 µM, cells treated only with monosaccharides Ia, Ic and Id; other columns, lipid A + compounds […] at increasing doses. The data represent means and standard deviations of triplicate wells. This is a representative of three independent experiments. *, p < 0.05; **, p < 0.01; ***, p< 0.001. • Figure 2. TLR-4 selectivity of monosaccharide Id. […] IL-1β was measured in the supernatants by ELISA. […] Lower panels, TNFα production measured by ELISA 24 h after stimulation with CpG (selective for TLR-9) or PAM3Cys-SK4 (selective for TLR-2) in the presence of compound Id. […] The cells were then analyzed by FACS for the presence of annexin V and propidium iodide (PI) double positive cells. […] NF-kB activation was evaluated in the nuclear extract 2 h later and expressed as optical density (OD) at 450 nm. […] Effect of different doses of compound Id on carrageenan induced edema in mice measured 4h after the exposure and expressed as difference between the paw volume of treated paw versus the contralateral paw. […]

Data set [2] has as its system TLR2. Briefly: TNFα production after stimulation with Pam3Cys-SK4 (TLR2 selectivity). The class given is cell-based, Mouse. The conditions noted are these: stimulation with Pam3Cys-SK4, specific for TLR2. The procedure: as §1
Data set [3] concerns DC and MΦ. Description: Cytotoxicity: PI test and annexin V test by FACS. Format: cell-based. Conditions: 10 to 100 µM, 48 h incubation, 24 h in Figure 3 legend. The procedure: as §1
Data set [4] has as its target T1, human TLR-4A (Homo sapiens, UniProt O00206+Q9Y6Y9).
T1 construct: host or cells: HEK-293 (HEK-293-hTLR-4A)
Description: NF-kB activation in HEK-293 cells transfected with TLR-4, stimulated with lipid A. The conditions noted are these: TLR-4-transfected HEK 293; lipid A (0.5 µM) after pre-exposure to compound; measured 2 h later. The class given is cell-based. The method, then: as §1

Data set [5] is described as follows: Solubility in the aqueous media used in the tests. Format: physicochemical. The conditions noted are these: compared with Ia and Ic.

T1 sequence (O00206 24-839): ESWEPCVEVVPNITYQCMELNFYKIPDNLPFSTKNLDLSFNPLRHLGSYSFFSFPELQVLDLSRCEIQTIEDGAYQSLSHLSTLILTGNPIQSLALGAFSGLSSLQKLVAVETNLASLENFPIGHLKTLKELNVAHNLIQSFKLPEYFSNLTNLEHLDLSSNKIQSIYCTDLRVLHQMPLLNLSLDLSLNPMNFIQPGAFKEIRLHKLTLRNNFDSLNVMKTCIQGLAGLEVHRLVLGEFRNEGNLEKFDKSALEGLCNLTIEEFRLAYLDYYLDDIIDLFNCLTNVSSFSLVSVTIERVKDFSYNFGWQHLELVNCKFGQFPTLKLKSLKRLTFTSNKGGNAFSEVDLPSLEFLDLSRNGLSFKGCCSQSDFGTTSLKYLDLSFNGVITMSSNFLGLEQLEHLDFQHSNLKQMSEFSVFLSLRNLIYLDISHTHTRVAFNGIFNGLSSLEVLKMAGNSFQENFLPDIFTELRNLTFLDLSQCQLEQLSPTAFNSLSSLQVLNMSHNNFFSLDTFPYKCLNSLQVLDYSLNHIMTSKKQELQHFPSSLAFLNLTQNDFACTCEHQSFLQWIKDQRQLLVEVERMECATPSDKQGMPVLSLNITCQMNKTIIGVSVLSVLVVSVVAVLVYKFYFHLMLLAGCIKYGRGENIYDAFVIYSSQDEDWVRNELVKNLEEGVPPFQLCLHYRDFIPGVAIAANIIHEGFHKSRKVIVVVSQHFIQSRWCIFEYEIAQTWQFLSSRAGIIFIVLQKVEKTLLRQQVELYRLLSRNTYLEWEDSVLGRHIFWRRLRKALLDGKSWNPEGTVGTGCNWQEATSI
T1 sequence (Q9Y6Y9 17-160 limits assumed): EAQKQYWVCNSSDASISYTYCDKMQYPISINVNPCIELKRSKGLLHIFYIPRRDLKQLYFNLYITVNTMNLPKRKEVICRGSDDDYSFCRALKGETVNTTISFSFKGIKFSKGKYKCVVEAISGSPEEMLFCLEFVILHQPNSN

As to `CCCCCCCCCCCCCCO[C@H]1[C@@H](OC)O[C@H](C[N+](C)(C)C2CCCC2)[C@@H](O)[C@@H]1OCCCCCCCCCCCCCC` [Compound Id, methyl 6-deoxy-6-N,N',N"-dimethylcyclopentylammonium-2,3-di-O-tetradecyl-α-D-glucopyranoside], in data set [1], the IL-1β synthesis result is on record as “inhibited”. Moreover, in data set [2], the TNFα production result is “not inhibited”. For the same compound, the “percent of dead cells” value in data set [3] was “does not induce death of MΦ and DC; also recorded: Neither DC nor MΦ showed an appreciable percent of dead cells”. The NF-kB activation result in data set [4] was “able to significantly counteract the effect of lipid A”. Moreover, the “solubility in the aqueous media used in the tests” value in data set [5] was “highest solubility”.
